Counter-ions that a name gives are not always drawn.
How the values were obtained:
GSDMD-N = target: T1, GSDMD-N (Mus musculus, UniProt Q9D8T2); experiment: GSDMD-N induced LDH release in HEK293T cells; assay type: cell-based; conditions: transfected HEK293T cells
T1 construct: Caspase cleavage of GSDMD liberates an N-terminal pore forming fragment (GSDMD-N, p30); host or cells: HEK293T
T1 sequence (Q9D8T2 1-276 limits assumed): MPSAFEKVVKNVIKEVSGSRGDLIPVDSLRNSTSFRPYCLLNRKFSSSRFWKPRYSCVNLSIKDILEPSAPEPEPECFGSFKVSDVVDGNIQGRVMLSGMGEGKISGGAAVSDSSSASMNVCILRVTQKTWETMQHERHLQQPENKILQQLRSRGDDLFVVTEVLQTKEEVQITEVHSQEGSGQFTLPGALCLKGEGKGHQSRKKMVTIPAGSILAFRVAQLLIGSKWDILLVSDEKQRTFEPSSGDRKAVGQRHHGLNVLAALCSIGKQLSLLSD
Text: FIGS. 2A-J. Succination of GSDMD inhibits pyroptosis. Immunoblot of GSDMD in streptavidin pulldown from clicked lysates treated as indicated (A-B). Representative MS spectra of 2-monomethyl and 2-dimethylsuccination of GSDMD immunoprecipitated from fumarate treated BMDMs (C-D). Immunoblot of GSDMD in clicked lysates from transfected HEK293T. Cell death of HEK293T transfected as indicated (F-H). Immunoblots of casplp20 and GSDMD in BMDMs (I). Immunoblots of an in vitro binding assay of succinated and non-succinated GSDMD incubated with caspase 1 beads (J). A, B, F, J, […] representative images from three independent experiments. C, D, E, representative mass spec spectra from two independent experiments. H, I pooled data from three independent experiments. ***, P<0.001 (One-way anova). Error bars show means±SEM.
Cells were plated, treated and incubated in phenol red free medium. Following treatment medium was collected and assessed for LDH release using the CytoTox96 non-radioactive cytotoxicity assay (Promega) as per manufacturer's instructions. […]
Primary BMDMs from WT or GsdmD^−/− mice were cultured in 12-well plates (1×10^6 cells per ml; 1 ml) or 10 cm dishes (2×10^6 cells per ml; 10 ml). […] Samples were resolved by SDS-PAGE and stained using simply blue safe stain or transferred to nitrocellulose membranes and analyzed by immunoblot. […]

CD14+ monocytes = experiment: LPS-Nig induced cell death and LDH release in primary CD14+ monocytes; assay type: cell-based, human; conditions: fumarate 25 μM
Procedure: FIGS. 6A-G. Fumarate inhibits pyroptosis in Human cells. (A-B) Representative images (A) and kinetic data (B) of SYTOX Orange and Hoechst-stained PMA-differentiated THP1 cells treated with LPS for 2 hours, DMSO (vehicle) or fumarate (25 μM) for 1 hour and nigericin (10 μM) for 6 hours. (C) LDH release from (A). (D-E) Kinetic cell death data of SYTOX Orange and Hoechst stained (D) or LDH assay of conditioned medium from primary CD14+ positive monocytes treated with LPS for 2 hours DMSO (vehicle) or fumarate (25 μM) for 1 hour and nigericin (10 μM) for 6 hours. (F) LC/MS quantification of fumarate in WT BMDMs treated with LPS for 2 hours, FHIN1 for 1 hour and nigericin for 1 hour. (G) Representative images of WT primary BMDMs stained with SYTOX Orange and Hoechst following treatment with LPS for 2 hours, DMSO (vehicle) or fumarate (25 μM) or FHIN1 (25 μM) for 1 hour and nigericin for a timecourse of 6 hours. A, B, D, G are representative of 3 independent experiments. C, E, F are pooled data from 3 independent experiments. ***, P<0.001, ****, P<0.00001 (Students t-test). Error bars show mean±SD (B, D) or SEM (C, E). Cells were plated, treated and incubated in phenol red free medium. Following treatment medium was collected and assessed for LDH release using the CytoTox96 non-radioactive cytotoxicity assay (Promega) as per manufacturer's instructions. […]

[1] = test system: GSDMD-deficient THP1 cells; experiment: Kinetic cell death in GSDMD-/- THP1 cells; assay type: cell-based, human
Text: FIGS. 3A-J. Fumarate targets GSDMD and Gasdermin E (GSDME). Kinetic cell death of WT and Gsdmd-BMDMs (A) or WT/GSDMD^-/- THP1 cells (B) treated as indicated. LDH and IL-1β release from WT and Gsdmd^-/- BMDMs (C-D). Immunoblot of GSDMD and GSDME in native and reduced cell lysates from BMDMs (E). Immunoblot of GSDME in streptavidin pulldown from clicked lysates (F). Representative Mass spectra of succinated GSDME (G-H). Immunoblot analysis of GSDMD and GSDME from WT and […]^-/- BMDMs (I). A, B representative of three independent experiments. C, D, I pooled data from three independent experiments. E, F, J representative images from 3 independent experiments. ***, P<0.0001, […] (Two-way ANOVA). Error bars show means±SEM. Cells were plated, treated and incubated in phenol red free medium. Following treatment medium was collected and assessed for LDH release using the CytoTox96 non-radioactive cytotoxicity assay (Promega) as per manufacturer's instructions. Kinetic cell death assays were performed using SytoxOrange and the Biotek Cytation5.

SMILES: COC(=O)/C=C/C(=O)OC [Fumarate, Dimethyl fumarate]
- GSDMD-N induced LDH release (GSDMD-N): inhibited
- LPS-Nig induced LDH release (CD14+ monocytes): blocked
- LPS-Nig induced cell death (CD14+ monocytes; SYTOX Orange): blocked
- cell death [1]: inhibited cell death
